Data as given in patent US6407132B1, “Substituted imidazole derivatives and their use as histamine H3 receptor ligands” (James Black Foundation Limited, priority 1997, dated 2002).

What was measured:
Histamine H3 receptor [1] = target: T1, Histamine H3 receptor (Cavia porcellus, UniProt Q9JI35); assay: ileal longitudinal muscle, myenteric plexus functional assay (shift of R-(α)-methylhistamine E/[A] curves, Schild); format: cell-based; design: the longitudinal muscle layer and adhering myenteric plexus was teased away; from tissue; host or cells: guinea pig ileal longitudinal muscle with myenteric plexus; conditions: guinea pig ileum longitudinal muscle myenteric plexus, electrically stimulated; antagonism of R-(α)-methylhistamine; typical variance ±0.15 log units; read-out: pKB (functional assay) - ileum (converted)
T1 sequence (Q9JI35 whole entry): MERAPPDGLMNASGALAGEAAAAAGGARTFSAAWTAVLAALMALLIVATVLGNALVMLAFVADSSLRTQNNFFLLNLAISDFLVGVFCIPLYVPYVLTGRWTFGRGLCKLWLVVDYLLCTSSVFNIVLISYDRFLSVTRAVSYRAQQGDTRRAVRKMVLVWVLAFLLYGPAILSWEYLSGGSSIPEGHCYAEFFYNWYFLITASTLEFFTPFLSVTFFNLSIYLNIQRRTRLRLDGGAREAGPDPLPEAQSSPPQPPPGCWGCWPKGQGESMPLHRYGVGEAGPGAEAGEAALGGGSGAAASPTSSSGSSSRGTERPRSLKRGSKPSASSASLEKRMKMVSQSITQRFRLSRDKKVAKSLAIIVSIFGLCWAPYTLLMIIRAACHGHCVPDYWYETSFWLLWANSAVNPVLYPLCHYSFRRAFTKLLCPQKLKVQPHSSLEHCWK
Description: The biological activity of the compounds of the examples was measured using the ileal longitudinal muscle, myenteric plexus assay described by Paton and Aboo Zar (J. Physiol. 1968, 194, 13-33). Male Dunkin-Hartley guinea pigs (250-300 g) were employed. Briefly, a 50 cm portion of ileum proximal to the caecum was removed, after discarding the terminal 20 cm. Ileal segments (3 cm) were cleaned by passing Krebs-Henseleit buffer containing 3 μM mepyramine gently through the ileum using a Pasteur pipette (size: 13.8 cm length, 0.65 cm diameter). To avoid unnecessary damage to the tissue, Krebs-Henseleit buffer was passed through the ileal segment, while it was lying horizontally on a petri dish. Therefore, the ileum was not over-distended and the buffer flowed through with ease. Each segment was then passed over a Pasteur pipette and the longitudinal muscle layer and adhering myenteric plexus was teased away using moist cotton wool, by stroking tangentially away from the mesenteric attachment. The tissues were suspended in 20 ml organ baths containing Krebs-Henseleit buffer at 37±1° C. and gassed with 95% CO2/5% O2. The tissues were ligated to two parallel stainless steel wires, situated between two platinum electrodes (0.76 cm length, 0.06 cm diameter). All measurements were recorded isometrically (Grass FTO3 transducer). Following an initial loading tension of 1 g, the tissues were stimulated with electrical pulses at a frequency of 0.1 Hz and a pulse duration of 0.5 msec, as described by Kosterlitz & Watt (Br. J. Pharmacol. 1968, 266-276). Initially, the tissues were stimulated at supramaximal (1.3 fold times maximal) voltage for a period of 30 min and then the tissues were washed and re-stimulated. A “sighter dose” of the selective histamine H3-receptor agonist, R-(α)-methylhistamine (0.3 μM) (Arrang et al. Nature, 1987, 117-123), was administered. Upon generation of response, the “sighter dose” was removed from the tissues by “washout” (6 washes over 60 min) and during this period the electrical stimulation was switched off. The tissues were then re-stimulated and allowed to stabilise prior to the addition of drug treatments, which were allocated on a randomised block basis to the organ baths. Following the incubation period, a single cumulative E/[A] curve was obtained. The experimental E/[A] curve data was expressed as the percentage inhibition of the peak height of electrically-stimulated contraction. Antagonist affinity values were calculated from the degree of rightward shift of the R-(α)-methylhistamine E/[A] curves using Schild's methods (Arunlakshana & Schild Br. J. Pharmacol. 1959, 48-58). Typical variance in this assay is ±0.15 log units.

Histamine H3 receptor [2] = target: T1, Histamine H3 receptor; assay: Histamine H3 Radioligand Binding Assay - Guinea Pig Cortex ([3H]-R-α-methylhistamine); design: The cortex was dissected, weighed and homogenised in ice-cold 20 mM Hepes-NaOH buffer; from tissue; host or cells: guinea pig brain cortex membranes; conditions: guinea pig cortex membranes; 0.1 nM [3H]-R-α-methylhistamine; typical variance ±0.12 log units; read-out: pKI (binding assay) - cortex (converted)
Description: Histamine H3 Radioligand Binding Assay—Guinea Pig Cortex
Male Dunkin Hartley guinea pigs (200-300 g) were used. The whole brain was removed and immediately placed in ice-cold 20 mM Hepes-NaOH buffer (pH7.4 at 21±3° C.). The cortex was dissected, weighed and homogenised in ice-cold 20 mM Hepes-NaOH buffer (pH7.4 at 21±3° C.) (50 ml/guinea-pig cortex) using a polytron (Kinematica AG, PT-DA 3020/2TS, 3×3s). The homogenate was centrifuged at 100×g for 5 min and the supernatants pooled and stored at 4° C. The pellets were rehomogenised in fresh ice-cold buffer (80 ml) and recentrifuged (100×g for 5 min). The supernatants were pooled and pellets rehomogenised and recentrifuged (100×g for 5 min). All supernatants were pooled and centrifuged at 39,800×g for 12 min at 4° C. The final pellet was resuspended in 20 mM Hepes-NaOH buffer (pH7.4 at 21±3° C.) to a tissue concentration of 7.5 mg.ml^−1, using a teflon-in-glass homogeniser.
Incubation Conditions and Data Analysis
These were essentially identical to those used for the guinea pig ileum myenteric plexus assay described above, except that the final assay concentration of [^3H]-R-α-methylhistamine was 0.1 nM. Typical variance in this binding assay is ±0.12 log units.

Histamine H3 receptor [3] = target: T1, Histamine H3 receptor; assay: Histamine H3 Radioligand Binding Assay - Guinea Pig Ileum ([3H]-R-α-methylhistamine); design: The cortex was dissected, weighed and homogenised in ice-cold 20 mM Hepes-NaOH buffer; from tissue; host or cells: guinea pig brain cortex membranes; conditions: guinea pig ileum longitudinal muscle myenteric plexus membranes; 3 nM [3H]-R-α-methylhistamine; typical variance 0.12 log units; read-out: pKI (binding assay) - ileum (converted)
Description: Histamine H3 Radioligand Binding Assay—Guinea Pig Ileum
Male Dunkin Hartley guinea pigs (200-300 g) were used. The small intestine was rapidly removed (cut ˜5 cm from caecum and 5 cm from stomach) and placed in ice-cold 20 mM Hepes-NaOH buffer (pH7.4 at 21±3° C.). The tissue was cut into ˜10 cm segments, flushed through with ice-cold 20 mM Hepes-NaOH buffer and placed in a beaker containing fresh buffer at 4° C. 10 cm segments of ileum were threaded onto a glass pipette and the longitudinal muscle myenteric plexus was peeled away from the circular muscle using damp cotton-wool. […]
Guinea pig ileum longitudinal muscle myenteric plexus membranes (400μl) were incubated for 165 min at 21±3° C. in a final volume of 500 μl with 20 mM Hepes-NaOH buffer containing [^3H]-R-α-methylhistamine (50 μl; 3 nM) and competing compound. […] The filters were washed (3×3 ml) with ice-cold 50 mM Tris-HCl (pH6.9 at 21±3° C.), transferred into scintillation vials, 5 ml liquid scintillation cocktail was added and after 4 hours the bound radioactivity was determined by counting (4 min) in a Beckman liquid scintillation counter.
Data are analysed using GraphPad prism and the general equation for a competition curve with variable Hill slope (nH). […]
KD is the equilibrium dissociation constant for the radioligand determined by saturation experiments. […]

SMILES	Kb (Histamine H3 receptor [1]) [nM]	Ki (Histamine H3 receptor [2]) [nM]	Ki (Histamine H3 receptor [3]) [nM]
O=S(=O)(NCc1ccc(Cc2c[nH]cn2)cc1)c1ccc2ccccc2c1 [Example 1]	229	324	339
O=S(=O)(NCc1ccc(Cl)cc1)NCc1ccc(Cc2c[nH]cn2)cc1 [Example 3, N-(4-Chloro-benzyl)-N′-[4-(1H-imidazol-4-ylmethyl)-benzyl]-sulfamide]	112	15.8	
O=S(=O)(Cc1ccc(Cl)cc1)Nc1ccc(Cc2c[nH]cn2)cc1 [Example 4, C-(4-Chloro-phenyl)-N-[4-(1H-imidazol-4-ylmelhyl)-phenyl]-methanesulfonamide]	407	93.3	
O=S(=O)(Cc1ccc(Cl)cc1)Nc1ccc(-c2c[nH]cn2)cc1 [Example 5, C-(4-Chloro-phenyl)-N-[4-(1H-imidazol-4-yl)-pheriyl]-methanesulfonamide]		1410	
O=S(=O)(Cc1ccc(Cl)cc1)NCc1cccc(Cc2c[nH]cn2)c1 [Example 6, C-(4-Chloro-phenyl)-N-[3-(1H-imidazol-4-ylmethyl)-benzyl]-methanesulfonamide]		372	

Further lines, results first:

Kb (Histamine H3 receptor [1]) [nM]	Ki (Histamine H3 receptor [2]) [nM]	Ki (Histamine H3 receptor [3]) [nM]	SMILES
70.8	28.8	141	O=S(=O)(Cc1ccc(Cl)cc1)NCc1ccc(Cc2c[nH]cn2)cc1 [Example 2, C-(4-Chlorophenyl)-N-[4-(1H-imidazol-4-ylmethyl)-benzyl]-methanesulfonamide]
955	288		O=S(=O)(Cc1ccc(Cl)cc1)NCCc1ccc(Cc2c[nH]cn2)cc1 [Example 7, C-(4-Chloro-phenyl)-N-{2-[4-(1H-imidazol-4-ylmethyl)-phenyl]-ethyl}-methanesulfonamide]
